# PMC6979384, “Characterization of the plant homeodomain (PHD) reader family for their histone tail interactions” (Epigenetics & Chromatin, 2020)
# Key:
# Assay in all cases: Histone peptide microarray
# Assay type in all cases: binding, human
# ING2 = settings: GST-tagged ING2; histone peptide array; arrays performed twice, n of 4
# Method in brief: (§1)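 Binding read as mean relative signal from 4 replicates; microarray held 293 synthetic histone peptides with single or combinatorial PTMs. Each GST-tagged PHD reader was applied at 0.5 μM using the optimized Petell protocol.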
# PHF21A = settings: GST-tagged PHF21A; histone peptide array; arrays performed twice, n of 4
# Method in brief: as §1
# CHD5 (PCC) = settings: GST-tagged CHD5 (PCC = PHD + Dual Chromodomain); histone peptide array; arrays performed twice, n of 4
# Method in brief: as §1
# BAZ2B = settings: GST-tagged BAZ2B; histone peptide array; arrays performed twice, n of 4
# Method in brief: as §1
# KDM7A = settings: GST-tagged KDM7A; histone peptide array; arrays performed twice, n of 4
# Method in brief: as §1
# ING4 = settings: GST-tagged ING4; histone peptide array; arrays performed twice, n of 4
# Method in brief: as §1
# RAG2 = settings: GST-tagged RAG2; histone peptide array; arrays performed twice, n of 4
# Method in brief: as §1
# TRIM66 (PB) = settings: GST-tagged TRIM66 (PB = PHD + Bromodomain); histone peptide array; arrays performed twice, n of 4
# Method in brief: as §1
# CHD5 (PPCC) = settings: GST-tagged CHD5 (PPCC = Dual PHD + Dual Chromodomain); histone peptide array; arrays performed twice, n of 4
# Method in brief: as §1
# ING3 = settings: GST-tagged ING3; histone peptide array; arrays performed twice, n of 4
# Method in brief: as §1
# TAF3 = settings: GST-tagged TAF3; histone peptide array; arrays performed twice, n of 4
# Method in brief: as §1
# PHF23 = settings: GST-tagged PHF23; histone peptide array; arrays performed twice, n of 4
# Method in brief: as §1
# KDM5A (1) = settings: GST-tagged KDM5A (1); histone peptide array; arrays performed twice, n of 4
# Method in brief: as §1
# BPTF (PB) = settings: GST-tagged BPTF (PB = PHD + Bromodomain); histone peptide array; arrays performed twice, n of 4
# Method in brief: as §1
# DPF2 (PPC2W2) = settings: GST-tagged DPF2 (PPC2W2 = Dual PHD + C2W2-type Zn-finger); histone peptide array; arrays performed twice, n of 4
# Method in brief: as §1
# SP140L = settings: GST-tagged SP140L; histone peptide array; arrays performed twice, n of 4
# Method in brief: as §1
# PHF2 = settings: GST-tagged PHF2; histone peptide array; arrays performed twice, n of 4
# Method in brief: as §1
# MLL5 = settings: GST-tagged MLL5; histone peptide array; arrays performed twice, n of 4
# Method in brief: as §1
# DIDO1 = settings: GST-tagged DIDO1; histone peptide array; arrays performed twice, n of 4
# Method in brief: as §1
# KDM5B (1) = settings: GST-tagged KDM5B (1); histone peptide array; arrays performed twice, n of 4
# Method in brief: as §1
# CHD4 (PPCC) = settings: GST-tagged CHD4 (PPCC = Dual PHD + Dual Chromodomain); histone peptide array; arrays performed twice, n of 4
# Method in brief: as §1
# PHF8 = settings: GST-tagged PHF8; histone peptide array; arrays performed twice, n of 4
# Method in brief: as §1
# KDM5A (3) = settings: GST-tagged KDM5A (3); histone peptide array; arrays performed twice, n of 4
# Method in brief: as §1
# ING1 = settings: GST-tagged ING1; histone peptide array; arrays performed twice, n of 4
# Method in brief: as §1
# ING5 = settings: GST-tagged ING5; histone peptide array; arrays performed twice, n of 4
# Method in brief: as §1
# AIRE (PP) = settings: GST-tagged AIRE (PP); histone peptide array; arrays performed twice, n of 4
# Method in brief: as §1
# KDM5B (3) = settings: GST-tagged KDM5B (3); histone peptide array; arrays performed twice, n of 4
# Method in brief: as §1
# KDM4C (TTP) = settings: GST-tagged KDM4C (TTP = Tandem Tudor domain + PHD); histone peptide array; arrays performed twice, n of 4
# Method in brief: as §1
# PHRF1 (RP) = settings: GST-tagged PHRF1 (RP); histone peptide array; arrays performed twice, n of 4
# Method in brief: as §1
# MORC3 (CW) = settings: GST-tagged MORC3 (CW = CW-type Zn-finger); histone peptide array; arrays performed twice, n of 4
# Method in brief: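 Readout is array binding signal, reported as the mean and standard deviation over four replicates. Each purified GST-fused PHD domain was incubated at 0.5 μM with a library of 293 modified histone peptides.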
# PHF13 = settings: GST-tagged PHF13; histone peptide array; arrays performed twice, n of 4
# Method in brief: as §1
substance,measurement,setting,value
H3K4me3 + R8me2s + K9me3: H3 1-20,"Array Heatmap signal, ING2",ING2,0.784
same,"Array Heatmap signal, PHF21A",PHF21A,0.4267
same,"Array Heatmap signal, CHD5 (PCC)",CHD5 (PCC),0.7143
same,"Array Heatmap signal, BAZ2B",BAZ2B,0.4293
same,"Array Heatmap signal, KDM7A",KDM7A,0.3751
same,"Array Heatmap signal, ING4",ING4,0.4627
same,"Array Heatmap signal, RAG2",RAG2,0.4516
same,"Array Heatmap signal, TRIM66 (PB)",TRIM66 (PB),0.6066
same,"Array Heatmap signal, CHD5 (PPCC)",CHD5 (PPCC),0.5185
same,"Array Heatmap signal, ING3",ING3,0.5388
same,"Array Heatmap signal, TAF3",TAF3,0.3814
same,"Array Heatmap signal, PHF23",PHF23,0.6635
same,"Array Heatmap signal, KDM5A (1)",KDM5A (1),0.429
same,"Array Heatmap signal, BPTF (PB)",BPTF (PB),0.3866
same,"Array Heatmap signal, DPF2 (PPC2W2)",DPF2 (PPC2W2),0.6565
same,"Array Heatmap signal, SP140L",SP140L,0.3193
same,"Array Heatmap signal, PHF2",PHF2,0.8739
same,"Array Heatmap signal, MLL5",MLL5,0.7037
same,"Array Heatmap signal, DIDO1",DIDO1,0.802
same,"Array Heatmap signal, KDM5B (1)",KDM5B (1),0.5808
same,"Array Heatmap signal, CHD4 (PPCC)",CHD4 (PPCC),0.5208
same,"Array Heatmap signal, PHF8",PHF8,0.5138
same,"Array Heatmap signal, KDM5A (3)",KDM5A (3),0.7166
same,"Array Heatmap signal, ING1",ING1,0.7489
same,"Array Heatmap signal, ING5",ING5,0.3819
same,"Array Heatmap signal, AIRE (PP)",AIRE (PP),0.378
same,"Array Heatmap signal, KDM5B (3)",KDM5B (3),0.5614
same,"Array Heatmap signal, KDM4C (TTP)",KDM4C (TTP),0.4847
same,"Array Heatmap signal, PHRF1 (RP)",PHRF1 (RP),0.4616
same,"Array Heatmap signal, MORC3 (CW)",MORC3 (CW),0.5559
same,"Array Heatmap signal, PHF13",PHF13,0.633
